Reference: ChEMBL document CHEMBL1201862, “PubChem BioAssay data set” (2004)
Blank lines part the entries; values can stand above or below the compound they belong to. Active and inactive are the calls of the source.

Assays:
Troponin, cardiac muscle = Troponin, cardiac muscle (Homo sapiens, UniProt P19429+P45379+P63316); experiment: Fluorescence-based biochemical high throughput dose response assay for activators of the calcium sensitivity of cardiac Regulated Thin Filaments (RTF). [Related pubchem assays (depositor defined):AID493008, AID493018, AID504382, AID504383]; assay type: protein-complex assay
[1] = biological target: T1, Short transient receptor potential channel 4 (Mus musculus, UniProt Q9QUQ5); experiment: mouse TRPC4 channel activators, dose response, cell-based, HEK293 TRPC4/mu-opioid, Fluo-4 calcium (AID 434937); assay type: functional
T1 sequence (Q9QUQ5 whole entry): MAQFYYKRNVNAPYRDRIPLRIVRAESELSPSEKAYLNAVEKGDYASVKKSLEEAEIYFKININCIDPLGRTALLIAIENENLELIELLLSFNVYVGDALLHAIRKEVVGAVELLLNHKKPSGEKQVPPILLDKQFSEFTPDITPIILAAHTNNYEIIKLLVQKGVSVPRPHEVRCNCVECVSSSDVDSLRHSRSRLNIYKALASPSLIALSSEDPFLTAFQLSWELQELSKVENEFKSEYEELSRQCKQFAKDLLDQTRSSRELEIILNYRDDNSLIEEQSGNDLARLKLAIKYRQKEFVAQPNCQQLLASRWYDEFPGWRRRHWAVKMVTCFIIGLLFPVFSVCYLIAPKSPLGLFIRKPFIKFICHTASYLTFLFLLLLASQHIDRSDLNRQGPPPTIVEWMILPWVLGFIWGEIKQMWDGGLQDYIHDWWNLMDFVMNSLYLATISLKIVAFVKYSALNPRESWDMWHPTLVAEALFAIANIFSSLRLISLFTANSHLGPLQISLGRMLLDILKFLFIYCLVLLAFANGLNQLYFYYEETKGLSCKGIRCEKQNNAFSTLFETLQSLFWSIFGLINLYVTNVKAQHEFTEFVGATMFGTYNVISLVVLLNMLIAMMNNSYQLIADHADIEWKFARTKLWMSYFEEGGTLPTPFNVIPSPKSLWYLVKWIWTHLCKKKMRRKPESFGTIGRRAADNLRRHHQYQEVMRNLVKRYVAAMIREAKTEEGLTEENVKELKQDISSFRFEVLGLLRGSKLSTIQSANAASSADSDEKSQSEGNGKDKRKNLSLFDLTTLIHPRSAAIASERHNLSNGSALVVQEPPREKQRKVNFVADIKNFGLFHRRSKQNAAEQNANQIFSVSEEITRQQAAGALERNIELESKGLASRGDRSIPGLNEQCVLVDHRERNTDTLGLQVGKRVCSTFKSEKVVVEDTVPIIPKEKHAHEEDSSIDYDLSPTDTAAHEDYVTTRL

[2] = biological target: DNA dC->dU-editing enzyme APOBEC-3G (Homo sapiens, UniProt Q9HC16); experiment: Dose Response confirmation of small molecule APOBEC3G DNA Deaminase Inhibitors via a fluorescence-based single-stranded DNA deaminase assay. [Related pubchem assays (depositor defined):AID493012, AID493028]; assay type: functional
DNA dC->dU-editing enzyme APOBEC-3G, sequence (Q9HC16 whole entry): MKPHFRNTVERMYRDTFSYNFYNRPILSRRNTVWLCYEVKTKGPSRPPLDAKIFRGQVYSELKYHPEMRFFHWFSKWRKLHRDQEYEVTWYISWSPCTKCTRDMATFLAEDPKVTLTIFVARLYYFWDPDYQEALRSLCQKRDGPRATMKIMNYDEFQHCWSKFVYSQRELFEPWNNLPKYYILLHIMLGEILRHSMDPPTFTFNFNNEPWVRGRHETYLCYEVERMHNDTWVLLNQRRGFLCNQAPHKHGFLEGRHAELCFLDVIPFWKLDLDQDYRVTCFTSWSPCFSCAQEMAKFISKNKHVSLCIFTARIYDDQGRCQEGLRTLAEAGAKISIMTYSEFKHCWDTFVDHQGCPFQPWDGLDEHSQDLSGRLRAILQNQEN

[3] = biological target: DNA dC->dU-editing enzyme APOBEC-3A (Homo sapiens, UniProt P31941); experiment: APOBEC3A DNA deaminase inhibitors, dose response, biochemical (AID 504722); assay type: functional
DNA dC->dU-editing enzyme APOBEC-3A, sequence (P31941 whole entry): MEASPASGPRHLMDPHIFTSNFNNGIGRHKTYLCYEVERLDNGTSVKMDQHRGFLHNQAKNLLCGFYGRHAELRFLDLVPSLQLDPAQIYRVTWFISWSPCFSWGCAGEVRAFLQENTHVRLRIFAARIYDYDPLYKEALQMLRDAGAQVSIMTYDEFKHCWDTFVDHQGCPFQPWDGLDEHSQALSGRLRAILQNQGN

Large T antigen = Large T antigen (Simian virus 40, UniProt P03070); assay type: functional, Betapolyomavirus macacae;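 also: Confirmatory-stage PubChem screen for compounds that inhibit SV40 T antigen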
Large T antigen, sequence (P03070 whole entry): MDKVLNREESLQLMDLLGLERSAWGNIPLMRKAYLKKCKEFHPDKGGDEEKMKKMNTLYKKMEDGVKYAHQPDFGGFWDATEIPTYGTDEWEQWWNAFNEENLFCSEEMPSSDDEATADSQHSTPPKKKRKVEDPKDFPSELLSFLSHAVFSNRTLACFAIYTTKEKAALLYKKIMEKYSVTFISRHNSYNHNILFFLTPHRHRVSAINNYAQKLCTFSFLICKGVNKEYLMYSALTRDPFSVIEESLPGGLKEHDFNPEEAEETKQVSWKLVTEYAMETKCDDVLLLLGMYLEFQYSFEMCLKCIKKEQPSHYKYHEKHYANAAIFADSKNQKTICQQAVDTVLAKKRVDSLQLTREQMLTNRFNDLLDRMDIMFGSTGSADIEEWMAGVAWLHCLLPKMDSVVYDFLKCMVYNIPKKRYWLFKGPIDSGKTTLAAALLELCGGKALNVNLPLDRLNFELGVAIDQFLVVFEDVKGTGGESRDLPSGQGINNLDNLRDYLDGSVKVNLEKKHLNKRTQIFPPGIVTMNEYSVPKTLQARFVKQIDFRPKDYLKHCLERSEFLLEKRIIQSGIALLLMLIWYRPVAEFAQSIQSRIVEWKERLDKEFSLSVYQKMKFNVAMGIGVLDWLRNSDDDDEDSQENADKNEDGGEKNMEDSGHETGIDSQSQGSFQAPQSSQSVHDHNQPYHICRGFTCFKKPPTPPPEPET

[4] = biological target: T2, Acyl-homoserine lactone acylase PvdQ (Pseudomonas aeruginosa (strain LESB58), UniProt Q9I194); experiment: P. aeruginosa PvdQ acylase inhibitors, dose response, biochemical, fluorescence, plate reader and imaging, cherry-picks (AID 493231)
T2 sequence (Q9I194 whole entry): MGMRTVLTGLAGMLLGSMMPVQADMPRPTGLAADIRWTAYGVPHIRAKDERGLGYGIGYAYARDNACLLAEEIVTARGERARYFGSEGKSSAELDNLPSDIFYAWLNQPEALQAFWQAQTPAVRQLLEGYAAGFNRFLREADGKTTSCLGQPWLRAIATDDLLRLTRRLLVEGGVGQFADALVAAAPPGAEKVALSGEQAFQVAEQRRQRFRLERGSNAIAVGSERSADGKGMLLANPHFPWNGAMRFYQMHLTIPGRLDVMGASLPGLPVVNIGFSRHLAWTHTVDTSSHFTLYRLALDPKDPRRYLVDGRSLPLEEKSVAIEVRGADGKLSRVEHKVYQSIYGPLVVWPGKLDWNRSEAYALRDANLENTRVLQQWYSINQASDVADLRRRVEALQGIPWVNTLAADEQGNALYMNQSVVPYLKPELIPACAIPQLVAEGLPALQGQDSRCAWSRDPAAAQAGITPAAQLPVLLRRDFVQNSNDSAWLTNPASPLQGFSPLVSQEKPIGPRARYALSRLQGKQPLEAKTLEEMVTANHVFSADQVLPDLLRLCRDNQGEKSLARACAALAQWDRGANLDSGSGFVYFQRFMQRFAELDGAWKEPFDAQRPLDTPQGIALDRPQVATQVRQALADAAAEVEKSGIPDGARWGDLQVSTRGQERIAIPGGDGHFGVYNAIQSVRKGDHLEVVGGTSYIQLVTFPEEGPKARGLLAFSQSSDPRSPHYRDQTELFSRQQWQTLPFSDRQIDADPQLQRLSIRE

Escherichia coli = experiment: microbe, parasite or virus in culture
[5] = biological target: T3, Heat shock factor protein 1 (Mus musculus, UniProt P38532); experiment: inhibition of MG132-induced HSE-luciferase signal, confirmation, cell-based, NIH3T3, luminescence, dose retest (AID 2382); assay type: functional;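 also: NIH3T3 fibroblasts with HSF1-driven luciferase reporter stressed by proteasome inhibitor MG132; luminescence from HSF1-driven luciferase expression after 8 hours of MG132 stress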
T3 sequence (P38532 whole entry): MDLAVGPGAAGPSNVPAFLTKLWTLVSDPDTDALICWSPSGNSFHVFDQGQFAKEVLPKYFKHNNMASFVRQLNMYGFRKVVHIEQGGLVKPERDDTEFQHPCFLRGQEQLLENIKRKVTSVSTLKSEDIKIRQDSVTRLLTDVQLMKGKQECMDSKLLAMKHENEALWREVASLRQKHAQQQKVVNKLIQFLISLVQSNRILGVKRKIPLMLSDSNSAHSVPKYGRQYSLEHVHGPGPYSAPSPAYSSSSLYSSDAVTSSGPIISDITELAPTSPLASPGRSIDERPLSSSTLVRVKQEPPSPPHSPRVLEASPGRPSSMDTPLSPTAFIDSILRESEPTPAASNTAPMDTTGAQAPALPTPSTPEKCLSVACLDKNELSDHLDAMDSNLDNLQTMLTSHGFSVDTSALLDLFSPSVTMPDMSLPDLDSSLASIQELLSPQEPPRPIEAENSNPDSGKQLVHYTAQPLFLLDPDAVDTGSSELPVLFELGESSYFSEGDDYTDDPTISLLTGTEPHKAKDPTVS

[6] = biological target: T4, High affinity choline transporter 1 (Homo sapiens, UniProt Q9GZV3); experiment: CHT inhibitors, dose response, cell-based, 5-point CRC, membrane potential dye (AID 504840); assay type: functional
T4 sequence (Q9GZV3 whole entry): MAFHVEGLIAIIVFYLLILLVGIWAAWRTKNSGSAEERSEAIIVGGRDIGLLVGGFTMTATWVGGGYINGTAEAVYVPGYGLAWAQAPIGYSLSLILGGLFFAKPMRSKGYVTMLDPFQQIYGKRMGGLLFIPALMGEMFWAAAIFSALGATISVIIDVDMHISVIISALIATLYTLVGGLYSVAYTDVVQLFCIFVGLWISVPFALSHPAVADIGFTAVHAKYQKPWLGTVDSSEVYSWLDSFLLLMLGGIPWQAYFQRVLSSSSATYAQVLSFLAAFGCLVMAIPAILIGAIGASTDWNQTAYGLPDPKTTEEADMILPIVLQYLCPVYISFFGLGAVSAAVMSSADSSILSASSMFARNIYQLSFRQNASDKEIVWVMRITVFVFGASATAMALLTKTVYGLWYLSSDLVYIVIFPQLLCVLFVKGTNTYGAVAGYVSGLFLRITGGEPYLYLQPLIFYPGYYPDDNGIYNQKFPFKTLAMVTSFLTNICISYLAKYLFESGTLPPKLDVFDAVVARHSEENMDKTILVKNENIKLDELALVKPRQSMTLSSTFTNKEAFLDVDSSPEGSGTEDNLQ

[7] = biological target: FAD-linked sulfhydryl oxidase ALR (Homo sapiens, UniProt P55789); experiment: inhibitors of human ALR sulfhydryl oxidase, dose response, biochemical, H2O2 detection, luminescence, cherry-pick (AID 493248)
FAD-linked sulfhydryl oxidase ALR, sequence (P55789 whole entry): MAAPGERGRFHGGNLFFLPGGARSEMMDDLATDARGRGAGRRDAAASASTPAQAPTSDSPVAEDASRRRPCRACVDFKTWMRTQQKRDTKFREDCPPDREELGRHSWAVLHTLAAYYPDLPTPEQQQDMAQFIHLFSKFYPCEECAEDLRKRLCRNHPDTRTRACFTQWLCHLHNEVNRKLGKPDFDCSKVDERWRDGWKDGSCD

Estrogen receptor beta [8] = biological target: T5, Estrogen receptor beta (Homo sapiens, UniProt Q92731); experiment: ERβ–SRC-3 coactivator interaction inhibitors, confirmation, orthogonal assay, biochemical, ELISA, streptavidin-HRP readout (AID 1060)
T5 sequence (Q92731 whole entry): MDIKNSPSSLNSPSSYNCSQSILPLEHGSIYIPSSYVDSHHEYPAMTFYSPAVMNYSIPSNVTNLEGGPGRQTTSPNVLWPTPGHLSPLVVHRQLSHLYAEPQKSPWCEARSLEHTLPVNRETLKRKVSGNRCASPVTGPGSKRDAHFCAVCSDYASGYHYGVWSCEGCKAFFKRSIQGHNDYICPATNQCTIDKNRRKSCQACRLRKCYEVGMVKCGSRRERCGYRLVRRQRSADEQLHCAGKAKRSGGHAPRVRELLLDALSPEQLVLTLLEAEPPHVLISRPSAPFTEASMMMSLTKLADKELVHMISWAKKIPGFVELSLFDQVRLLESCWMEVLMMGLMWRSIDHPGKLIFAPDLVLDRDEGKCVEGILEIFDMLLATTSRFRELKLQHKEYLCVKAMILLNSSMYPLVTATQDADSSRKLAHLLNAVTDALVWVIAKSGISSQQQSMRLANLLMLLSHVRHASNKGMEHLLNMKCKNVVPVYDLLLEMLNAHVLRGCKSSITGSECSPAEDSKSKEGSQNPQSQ

Estrogen receptor = biological target: T6, Estrogen receptor (Homo sapiens, UniProt P03372);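 also: potency for inhibiting coactivator peptide recruitment to the receptor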
T6 sequence (P03372 whole entry): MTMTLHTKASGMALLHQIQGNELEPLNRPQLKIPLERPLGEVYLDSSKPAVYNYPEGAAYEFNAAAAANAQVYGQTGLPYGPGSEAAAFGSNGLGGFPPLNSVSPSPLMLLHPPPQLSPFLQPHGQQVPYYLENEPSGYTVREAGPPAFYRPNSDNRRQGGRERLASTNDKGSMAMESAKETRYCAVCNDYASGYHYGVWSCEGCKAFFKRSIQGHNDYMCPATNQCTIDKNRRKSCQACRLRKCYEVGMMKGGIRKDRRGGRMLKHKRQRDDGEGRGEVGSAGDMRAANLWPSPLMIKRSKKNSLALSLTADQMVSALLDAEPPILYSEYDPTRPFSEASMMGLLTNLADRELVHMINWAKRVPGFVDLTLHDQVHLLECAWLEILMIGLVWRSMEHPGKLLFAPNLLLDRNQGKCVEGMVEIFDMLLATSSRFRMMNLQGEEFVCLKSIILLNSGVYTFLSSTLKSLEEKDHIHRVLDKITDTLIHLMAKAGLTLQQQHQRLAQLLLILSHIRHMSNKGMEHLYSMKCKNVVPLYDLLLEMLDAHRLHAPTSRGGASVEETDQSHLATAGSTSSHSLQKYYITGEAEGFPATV

Estrogen receptor beta [9] = biological target: T5, Estrogen receptor beta
[10] = biological target: Voltage-dependent T-type calcium channel subunit alpha-1H (Homo sapiens, UniProt O95180); assay type: functional;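 also: channel activity triggered by adding a high calcium stimulation buffer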
Voltage-dependent T-type calcium channel subunit alpha-1H, sequence (O95180 whole entry): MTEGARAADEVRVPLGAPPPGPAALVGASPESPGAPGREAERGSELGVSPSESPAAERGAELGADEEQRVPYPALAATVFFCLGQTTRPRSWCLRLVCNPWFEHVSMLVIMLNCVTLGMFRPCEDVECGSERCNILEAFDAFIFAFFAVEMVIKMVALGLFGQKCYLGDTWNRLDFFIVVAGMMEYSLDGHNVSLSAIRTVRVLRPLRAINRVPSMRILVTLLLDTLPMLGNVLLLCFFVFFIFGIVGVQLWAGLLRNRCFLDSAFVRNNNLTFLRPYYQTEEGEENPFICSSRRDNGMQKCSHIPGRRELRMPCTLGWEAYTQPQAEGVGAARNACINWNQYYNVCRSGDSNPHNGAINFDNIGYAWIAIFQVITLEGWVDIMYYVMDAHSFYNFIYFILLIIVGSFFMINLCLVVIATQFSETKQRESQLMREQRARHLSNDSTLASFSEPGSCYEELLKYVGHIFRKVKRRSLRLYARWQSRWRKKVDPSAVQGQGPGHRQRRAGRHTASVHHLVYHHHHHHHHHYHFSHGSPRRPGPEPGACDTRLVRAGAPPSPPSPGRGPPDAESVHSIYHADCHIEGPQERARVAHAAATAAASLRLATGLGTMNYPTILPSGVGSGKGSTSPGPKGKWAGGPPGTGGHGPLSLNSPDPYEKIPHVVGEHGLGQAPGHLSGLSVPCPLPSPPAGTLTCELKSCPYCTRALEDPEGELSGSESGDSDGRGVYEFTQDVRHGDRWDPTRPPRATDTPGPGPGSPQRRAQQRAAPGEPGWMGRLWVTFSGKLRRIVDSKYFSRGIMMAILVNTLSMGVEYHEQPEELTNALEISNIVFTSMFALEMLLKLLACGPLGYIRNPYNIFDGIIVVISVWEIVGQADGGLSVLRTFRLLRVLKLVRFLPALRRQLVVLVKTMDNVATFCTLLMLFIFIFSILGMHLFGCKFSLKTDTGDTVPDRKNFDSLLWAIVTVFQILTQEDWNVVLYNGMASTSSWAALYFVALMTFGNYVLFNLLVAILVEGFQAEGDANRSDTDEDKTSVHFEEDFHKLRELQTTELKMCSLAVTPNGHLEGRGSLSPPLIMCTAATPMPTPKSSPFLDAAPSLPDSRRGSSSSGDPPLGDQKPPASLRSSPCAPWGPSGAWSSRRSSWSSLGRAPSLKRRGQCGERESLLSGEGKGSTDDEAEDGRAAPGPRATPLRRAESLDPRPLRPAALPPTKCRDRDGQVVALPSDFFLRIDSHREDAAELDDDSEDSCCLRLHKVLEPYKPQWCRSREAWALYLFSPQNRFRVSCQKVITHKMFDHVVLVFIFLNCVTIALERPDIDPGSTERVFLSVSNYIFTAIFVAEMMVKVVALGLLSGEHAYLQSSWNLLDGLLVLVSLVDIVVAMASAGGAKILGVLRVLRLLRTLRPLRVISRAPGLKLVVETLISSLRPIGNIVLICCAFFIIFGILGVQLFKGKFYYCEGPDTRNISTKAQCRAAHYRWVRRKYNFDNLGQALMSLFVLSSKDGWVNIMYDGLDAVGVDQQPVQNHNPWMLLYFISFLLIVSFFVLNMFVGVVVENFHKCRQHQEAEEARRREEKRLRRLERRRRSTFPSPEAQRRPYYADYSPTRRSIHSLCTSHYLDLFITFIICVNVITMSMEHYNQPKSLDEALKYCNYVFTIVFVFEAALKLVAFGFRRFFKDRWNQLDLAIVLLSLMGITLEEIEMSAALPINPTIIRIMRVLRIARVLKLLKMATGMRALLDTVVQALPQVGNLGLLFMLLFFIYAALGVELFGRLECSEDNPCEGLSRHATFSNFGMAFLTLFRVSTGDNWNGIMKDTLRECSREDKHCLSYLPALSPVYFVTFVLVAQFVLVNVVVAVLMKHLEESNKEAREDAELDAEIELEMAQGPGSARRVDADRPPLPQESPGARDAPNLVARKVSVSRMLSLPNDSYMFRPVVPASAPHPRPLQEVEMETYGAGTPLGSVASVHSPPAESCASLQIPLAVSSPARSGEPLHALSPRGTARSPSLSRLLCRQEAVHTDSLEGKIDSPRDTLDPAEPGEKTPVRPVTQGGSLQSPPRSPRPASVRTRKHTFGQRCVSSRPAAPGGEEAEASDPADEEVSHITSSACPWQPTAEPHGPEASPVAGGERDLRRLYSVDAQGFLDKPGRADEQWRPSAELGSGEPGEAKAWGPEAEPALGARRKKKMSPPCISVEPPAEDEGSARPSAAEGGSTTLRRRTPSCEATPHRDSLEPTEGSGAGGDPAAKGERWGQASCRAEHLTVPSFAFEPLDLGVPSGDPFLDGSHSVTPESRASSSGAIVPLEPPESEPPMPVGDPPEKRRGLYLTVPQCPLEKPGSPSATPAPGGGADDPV

[11] = growth suppression of PTEN-null colon cells, dose response, cell-based, HCT116 PTEN knockout (AID 1047); assay type: functional;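 also: HCT116 colon tumor cells with PTEN knocked out; cells exposed to compound for 60 hours before readout; potency for loss of cell viability measured by luminescence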
[12] = growth suppression of beta-catenin-knockout colon cells, dose response, cell-based, HCT116, human colon tumor (AID 1045); assay type: functional;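 also: HCT116 colon tumor cells with beta catenin knocked out; cells exposed to compound for 60 hours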

EC50 (Troponin, cardiac muscle): > 71.4 µM (inactive)
SMILES: O=C(c1cnc2ccccc2n1)N1CCN(c2ccc(C(F)(F)F)cn2)CC1

EC50 [1]: 3.35 µM (active)
SMILES: COc1c(C)cc(C(=O)C2CCCN(Cc3cccc4nccnc34)C2)cc1C (stereo unspecified)

SMILES: Fc1cccc(C2NCCc3[nH]cnc32)c1 (stereo unspecified)
EC50 [1]: 3.76 µM (active)

SMILES: O=c1c2c3c(sc2n2c(S)nnc2n1-c1ccccc1)CCC3
IC50 [2]: 3.72 µM (active)
IC50 [3]: > 100 µM (inactive)
IC50 (Large T antigen): 30.4 µM (active)

SMILES: CCCNS(=O)(=O)c1ccc(OC)c(Cl)c1Cl
AC50 [4]: 8.91 µM (active)

SMILES: CCOC(=O)CSc1cc(CS(C)(=O)=O)nc(-c2ccccn2)n1
AC50 (Escherichia coli): 56.8 µM (active)
EC50 [5]: > 195 µM (not active)

SMILES: Cn1c(S)nnc1-c1sc2ccccc2c1Cl
IC50 [2]: 0.936 µM (active)
IC50 [6]: 8.32 µM (active)
IC50 [3]: > 100 µM (inactive)
AC50 [7]: 12 µM (active)

IC50 (Estrogen receptor beta [8]): 85.5 µM (not active)
EC50 (Troponin, cardiac muscle): 2.02 µM (active)
IC50 (Estrogen receptor): 33.3 µM (not active)
IC50 (Estrogen receptor beta [9]): 12.7 µM (active)
SMILES: COc1ccc(NC2=NC(=O)S/C2=C\c2ccc(N(C)C)cc2)cc1

SMILES: Cn1cccc1C(C#N)c1cccc(F)c1C#N (stereo unspecified)
AC50 [4]: 4.57 µM (active)

SMILES: O=[N+]([O-])c1ccc(N2CCCC2)nc1
AC50 [4]: 5.4 µM (active)

IC50 [6]: 19.1 µM (active)
EC50 [10]: 6.13 µM (active)
SMILES: C=CCc1ccc(OCC(O)CN2CCC(Cc3ccccc3)CC2)c(OC)c1 (stereo unspecified)

IC50 [6]: 13.8 µM (active)
SMILES: Cc1c(NC(=O)CSc2nnc(C(C)Oc3ccc(Cl)cc3)n2-c2ccccc2)c(=O)n(-c2ccccc2)n1C (stereo unspecified)

SMILES: O=C(/C=C/c1cccs1)c1cc(Cl)ccc1O
AC50 [4]: 4.67 µM (active)

EC50 [1]: 0.149 µM (active)
SMILES: COc1ccc2[nH]c(SCCN(C)C)nc2c1

EC50 (Troponin, cardiac muscle): > 71.5 µM (inactive)
SMILES: O=C(Cn1cnc2c(cnn2-c2ccccc2)c1=O)Nc1ccc(S(=O)(=O)N2CCOCC2)cc1

SMILES: COc1ccc2c(c1)c(C(O)CN1CCC(Cc3ccccc3)CC1)c(C)n2C (stereo unspecified)
AC50 (Escherichia coli): 73.6 µM (active)

SMILES: N=c1n(Cc2ccccc2)c2ccccc2n1CC(O)COc1ccccc1 (stereo unspecified)
IC50 [6]: 9.78 µM (active)
EC50 [11]: 9.02 µM (active)
EC50 [1]: 0.267 µM (active)
EC50 [12]: 6.96 µM (active)
EC50 [10]: 2.6 µM (active)
